Experimental data taken from ChEMBL document CHEMBL4184243, “Optimization of antimalarial, and anticancer activities of (E)-methyl 2-(7-chloroquinolin-4-ylthio)-3-(4-hydroxyphenyl) acrylate” (Bioorg Med Chem, 2018).

Assays:
HL-60 [1] = assay: Induction of apoptosis in human HL60 cells assessed as early apoptotic cells at 5 uM after 24 hrs by Annexin-V-FITC/propidium iodide staining based flow cytometric analysis (reference value: 0.36 +/- 0.02 %); format: functional
HL-60 [2] = assay: Cytotoxicity against human HL60 cells after 24 hrs by MTT assay; format: functional, cell-based; conditions: HL-60, 24 h
Lymphocyte = assay: Cytotoxicity against human lymphocytes after 24 to 48 hrs by MTT assay; format: cell-based
[3] = Selectivity index, ratio of IC50 for human lymphocytes to IC50 for human Jurkat E6-1 cells; format: toxicity; conditions: human lymphocytes versus Jurkat E6-1 cells, read-out: Ratio IC50
HL-60 [4] = assay: Induction of apoptosis in human HL60 cells assessed as late apoptotic cells at 5 uM after 24 hrs by Annexin-V-FITC/propidium iodide staining based flow cytometric analysis (reference value: 0.85 +/- 0.13 %); format: functional
Jurkat E6.1 [5] = assay: Cytotoxicity against human Jurkat E6-1 cells after 24 hrs by MTT assay; format: functional, cell-based; conditions: Jurkat E6.1, 24 h
Jurkat E6.1 [6] = assay: Induction of apoptosis in human Jurkat E6-1 cells assessed as early apoptotic cells at 5 uM after 24 hrs by Annexin-V-FITC/propidium iodide staining based flow cytometric analysis (reference value: 0.5 +/- 0.07 %); format: functional
[7] = Inhibition of beta-hematin formation assessed as reduction in acetate buffer-initiated hemozoin formation measured after 48 hrs; parameters: concentration or dose not given beside the values; conditions: concentration not given here
[8] = Selectivity index, ratio of IC50 for human lymphocytes to IC50 for human HL60 cells; format: toxicity; conditions: human lymphocytes versus HL60 cells, read-out: Ratio IC50
Jurkat E6.1 [9] = assay: Induction of apoptosis in human Jurkat E6-1 cells assessed as necrotic cells at 5 uM after 24 hrs by Annexin-V-FITC/propidium iodide staining based flow cytometric analysis (reference value: 1.26 +/- 0.24 %); format: functional
Jurkat E6.1 [10] = assay: Induction of apoptosis in human Jurkat E6-1 cells assessed as late apoptotic cells at 5 uM after 24 hrs by Annexin-V-FITC/propidium iodide staining based flow cytometric analysis (reference value: 0.73 +/- 0.14 %); format: functional
HL-60 [11] = assay: Induction of apoptosis in human HL60 cells assessed as necrotic cells at 5 uM after 24 hrs by Annexin-V-FITC/propidium iodide staining based flow cytometric analysis (reference value: 1.96 +/- 0.33 %); format: functional
Jurkat E6.1 [12] = assay: Induction of apoptosis in human Jurkat E6-1 cells assessed as late apoptotic cells at 50 uM after 24 hrs by Annexin-V-FITC/propidium iodide staining based flow cytometric analysis (reference value: 0.73 +/- 0.14 %); format: functional
Jurkat E6.1 [13] = assay: Induction of apoptosis in human Jurkat E6-1 cells assessed as early apoptotic cells at 50 uM after 24 hrs by Annexin-V-FITC/propidium iodide staining based flow cytometric analysis (reference value: 0.5 +/- 0.07 %); format: functional
HL-60 [14] = assay: Induction of apoptosis in human HL60 cells assessed as early apoptotic cells at 50 uM after 24 hrs by Annexin-V-FITC/propidium iodide staining based flow cytometric analysis (reference value: 0.36 +/- 0.02 %); format: functional
Jurkat E6.1 [15] = assay: Induction of apoptosis in human Jurkat E6-1 cells assessed as necrotic cells at 50 uM after 24 hrs by Annexin-V-FITC/propidium iodide staining based flow cytometric analysis (reference value: 1.26 +/- 0.24 %); format: functional
HL-60 [16] = assay: Induction of apoptosis in human HL60 cells assessed as late apoptotic cells at 50 uM after 24 hrs by Annexin-V-FITC/propidium iodide staining based flow cytometric analysis (reference value: 0.85 +/- 0.13 %); format: functional
HL-60 [17] = assay: Induction of apoptosis in human HL60 cells assessed as necrotic cells at 50 uM after 24 hrs by Annexin-V-FITC/propidium iodide staining based flow cytometric analysis (reference value: 1.96 +/- 0.33 %); format: functional
HL-60 [18] = assay: Induction of apoptosis in human HL60 cells assessed as early apoptotic cells at 1 uM after 24 hrs by Annexin-V-FITC/propidium iodide staining based flow cytometric analysis (reference value: 0.36 +/- 0.02 %); format: functional
Jurkat E6.1 [19] = assay: Induction of apoptosis in human Jurkat E6-1 cells assessed as early apoptotic cells at 1 uM after 24 hrs by Annexin-V-FITC/propidium iodide staining based flow cytometric analysis (reference value: 0.5 +/- 0.07 %); format: functional
Jurkat E6.1 [20] = assay: Induction of apoptosis in human Jurkat E6-1 cells assessed as late apoptotic cells at 1 uM after 24 hrs by Annexin-V-FITC/propidium iodide staining based flow cytometric analysis (reference value: 0.73 +/- 0.14 %); format: functional
HL-60 [21] = assay: Induction of apoptosis in human HL60 cells assessed as late apoptotic cells at 1 uM after 24 hrs by Annexin-V-FITC/propidium iodide staining based flow cytometric analysis (reference value: 0.85 +/- 0.13 %); format: functional
HL-60 [22] = assay: Induction of apoptosis in human HL60 cells assessed as necrotic cells at 1 uM after 24 hrs by Annexin-V-FITC/propidium iodide staining based flow cytometric analysis (reference value: 1.96 +/- 0.33 %); format: functional
Jurkat E6.1 [23] = assay: Induction of apoptosis in human Jurkat E6-1 cells assessed as necrotic cells at 1 uM after 24 hrs by Annexin-V-FITC/propidium iodide staining based flow cytometric analysis (reference value: 1.26 +/- 0.24 %); format: functional
Plasmodium berghei [24] = assay: Antimalarial activity against chloroquine-susceptible Plasmodium berghei ANKA infected in Balb-C mouse assessed as parasitemia at 10 mg/kg, ip administered once daily for 4 days measured post last dose by Giemsa staining based method (reference value: 65.8 +/- 4.38%); format: functional
Plasmodium berghei [25] = assay: Antimalarial activity against chloroquine-susceptible Plasmodium berghei ANKA infected in Balb-C mouse assessed as mean survival days at 10 mg/kg, ip administered once daily for 4 days (reference value: 8.4 +/- 0.15 day); format: functional
Jurkat E6.1 [26] = assay: Induction of apoptosis in human Jurkat E6-1 cells assessed as early apoptotic cells at 100 uM after 24 hrs by Annexin-V-FITC/propidium iodide staining based flow cytometric analysis (reference value: 0.5 +/- 0.07 %); format: functional
HL-60 [27] = assay: Induction of apoptosis in human HL60 cells assessed as late apoptotic cells at 100 uM after 24 hrs by Annexin-V-FITC/propidium iodide staining based flow cytometric analysis (reference value: 0.85 +/- 0.13 %); format: functional
HL-60 [28] = assay: Induction of apoptosis in human HL60 cells assessed as early apoptotic cells at 100 uM after 24 hrs by Annexin-V-FITC/propidium iodide staining based flow cytometric analysis (reference value: 0.36 +/- 0.02 %); format: functional
HL-60 [29] = assay: Induction of apoptosis in human HL60 cells assessed as necrotic cells at 100 uM after 24 hrs by Annexin-V-FITC/propidium iodide staining based flow cytometric analysis (reference value: 1.96 +/- 0.33 %); format: functional
Jurkat E6.1 [30] = assay: Induction of apoptosis in human Jurkat E6-1 cells assessed as necrotic cells at 100 uM after 24 hrs by Annexin-V-FITC/propidium iodide staining based flow cytometric analysis (reference value: 1.26 +/- 0.24 %); format: functional
Jurkat E6.1 [31] = assay: Induction of apoptosis in human Jurkat E6-1 cells assessed as late apoptotic cells at 100 uM after 24 hrs by Annexin-V-FITC/propidium iodide staining based flow cytometric analysis (reference value: 0.73 +/- 0.14 %); format: functional
Jurkat = assay: Cytotoxicity against human Jurkat cells after 20 hrs by propidium iodide staining based flow cytometry; format: functional, cell-based

Row | SMILES | IC50 (HL-60 [2]) [µM] | IC50 (Lymphocyte) [µM] | selectivity ratio [3] | IC50 (Jurkat E6.1 [5]) [µM] | inhibition [7] [%] | selectivity ratio [8] | Activity (Plasmodium berghei [24]) [%] | MSD (Plasmodium berghei [25]) [days] | also measured
1 | COC(=O)/C(=C\c1ccc(OC(=O)c2cc(OC)c(OC)c(OC)c2)cc1)Sc1ccnc2cc(Cl)ccc12 | 4.24 | 35.2 | 7.7 | 4.57 | 2.48 | 8.3 | – | – | Activity (HL-60 [1]): 0.75%; Activity (HL-60 [4]): 11.3%; Activity (Jurkat E6.1 [6]): 2.41%; Activity (Jurkat E6.1 [9]): 35.6%; Activity (Jurkat E6.1 [10]): 10.3%; Activity (HL-60 [11]): 45.8%
2 | COC(=O)/C(=C\c1ccc(OC(=O)c2ccc(OC)cc2)cc1)Sc1ccnc2cc(Cl)ccc12 | 9.09 | 63.5 | 5.77 | 11 | 12.2 | 6.99 | – | – | –
3 | COC(=O)/C(=C\c1ccc(OC(=O)c2ccc(OC)c(OC)c2)cc1)Sc1ccnc2cc(Cl)ccc12 | 5.29 | 51.1 | 6.16 | 8.29 | 12.7 | 9.66 | – | – | Activity (HL-60 [1]): 0.33%; Activity (HL-60 [4]): 2.15%; Activity (Jurkat E6.1 [6]): 0.76%; Activity (Jurkat E6.1 [9]): 21.5%; Activity (Jurkat E6.1 [10]): 13.5%; Activity (HL-60 [11]): 40.2%
4 | COC(=O)/C(=C\c1ccc(OC(=O)c2cc(OCc3ccccc3)c(OCc3ccccc3)c(OCc3ccccc3)c2)cc1)Sc1ccnc2cc(Cl)ccc12 | > 100 | > 100 | – | > 100 | 23 | – | – | – | –
5 | O=c1c(O)c(-c2ccc(O)c(O)c2)oc2cc(O)cc(O)c12 [QUERCETIN] | – | – | – | – | – | – | – | – | Activity (Jurkat E6.1 [12]): 9.51%; Activity (Jurkat E6.1 [13]): 0.64%; Activity (HL-60 [14]): 0.46%; Activity (Jurkat E6.1 [15]): 31.9%; Activity (HL-60 [16]): 3.07%; Activity (HL-60 [17]): 31%
6 | COC(=O)/C(=C\c1ccc(OC(=O)c2cc(OC)cc(OC)c2OC)cc1)Sc1ccnc2cc(Cl)ccc12 | 10.7 | 74 | 4.74 | 15.6 | 47.7 | 6.91 | – | – | –
7 | COc1cccc2c1C(=O)c1c(O)c3c(c(O)c1C2=O)C[C@@](O)(C(=O)CO)C[C@@H]3O[C@H]1C[C@H](N)[C@H](O)[C@H](C)O1 [DOXORUBICIN] | 1.6 | 4.36 | – | 1.03 | – | – | – | – | Activity (HL-60 [18]): 1.91%; Activity (Jurkat E6.1 [19]): 0.89%; Activity (Jurkat E6.1 [20]): 19.8%; Activity (HL-60 [21]): 20.8%; Activity (HL-60 [22]): 30.2%; Activity (Jurkat E6.1 [23]): 32.6%
8 | COC(=O)/C(=C\c1ccc(OC(=O)c2ccc(OC)cc2OC)cc1)Sc1ccnc2cc(Cl)ccc12 | 7.64 | 41.6 | 4.09 | 10.2 | 49.2 | 5.45 | – | – | –
9 | COC(=O)/C(=C\c1ccc(OC(=O)c2ccccc2OC)cc1)Sc1ccnc2cc(Cl)ccc12 | 44.5 | > 100 | – | 44.6 | 94.6 | – | 1.2 | 28.83 | –
10 | COC(=O)/C(=C\c1ccc(OC(=O)c2cc(OC)cc(OC)c2)cc1)Sc1ccnc2cc(Cl)ccc12 | 19 | 84.1 | 2.92 | 28.9 | 85.6 | 4.42 | 1.4 | 28.5 | –
11 | COC(=O)/C(=C\c1ccc(OC(=O)c2cc(OC)c(OC)cc2OC)cc1)Sc1ccnc2cc(Cl)ccc12 | 6.26 | 52.5 | 5.44 | 9.65 | 39.6 | 8.34 | – | – | Activity (HL-60 [1]): 0.61%; Activity (HL-60 [4]): 4.21%; Activity (Jurkat E6.1 [6]): 0.85%; Activity (Jurkat E6.1 [9]): 21.4%; Activity (Jurkat E6.1 [10]): 3.17%; Activity (HL-60 [11]): 29.5%
12 | O=[As][As+](=O)[O-] (stereo unspecified) [ARSENIC TRIOXIDE] | 4.97 | 15.3 | 2.09 | 7.32 | – | 3.07 | – | – | –
13 | COC(=O)/C(=C\c1ccc(OC(=O)c2ccccc2)cc1)Sc1ccnc2cc(Cl)ccc12 | 30.2 | > 100 | – | 35.7 | 33.6 | – | – | – | –
14 | COC(=O)/C(=C\c1ccc(OC(=O)c2cccc(OC)c2OC)cc1)Sc1ccnc2cc(Cl)ccc12 | 13 | 86.6 | 3.36 | 25.8 | 38.6 | 6.66 | – | – | –
15 | COC(=O)/C(=C\c1ccc(OC(=O)c2cccc(OC)c2)cc1)Sc1ccnc2cc(Cl)ccc12 | 25.5 | > 100 | – | 33.2 | 87.1 | – | 1.5 | 27.16 | –
16 | COC(=O)/C(=C\c1ccc(O)cc1)Sc1ccnc2cc(Cl)ccc12 | 4.31 | 33.7 | 6.51 | 5.18 | 72.4 | 7.82 | 1.4 | 24.8 | Activity (HL-60 [1]): 0.74 - 0.75%; Activity (HL-60 [4]): 3.15%; Activity (Jurkat E6.1 [6]): 0.45%; Activity (Jurkat E6.1 [9]): 38.8%; Activity (Jurkat E6.1 [10]): 2.12%; Activity (HL-60 [11]): 45%
17 | CCN(CC)CCCC(C)Nc1ccnc2cc(Cl)ccc12 (stereo unspecified) [CHLOROQUINE] | > 100 | > 100 | – | 83.6 | 98.5 | – | 0.8 | 29.98 | Activity (Jurkat E6.1 [26]): 1.4%; Activity (HL-60 [27]): 2.14%; Activity (HL-60 [28]): 0.66%; Activity (HL-60 [29]): 23.6%; Activity (Jurkat E6.1 [30]): 23.7%; Activity (Jurkat E6.1 [31]): 7.85%; IC50 (Jurkat): 95 µM
18 | COC(=O)/C(=C\c1ccc(OC(=O)c2c(OC)cccc2OC)cc1)Sc1ccnc2cc(Cl)ccc12 | 37.2 | > 100 | – | 37.5 | 92.7 | – | 2.6 | 23 | –
